# “Also recorded” adds a separate entry of the source.
# Columns and labels:
# [1] = test system: FVB mice; assay: Dexa-induced growth retardation in FVB mice (tibia length, nose to anus length); type: in vivo; conditions: HNG 1 μg/mice/day i.p. prior to Dexa 20 μg/mice/day; for rescue from Dexa-induced growth retardation (nose to anus length): 4 weeks
# Procedure: Four weeks old female mice FVB strain were obtained from Charles-River, Germany. The mice were kept in animal facility under a 12-h light, 12-h dark schedule with water ad libitum. After an adaptation period, mice were injected with Dexa dissolved in saline (20 μg/mice) subcutaneously in the neck every day for 1 week (short-term). Whereas, HNG (S14G) dissolved in saline (1 μg/mice) was injected intraperitoneally, 45 minutes prior to Dexa injection. The vehicle group received saline only. After one week of treatment/injections, animals were sacrificed and the back legs (femur and tibia) were collected. The skin and muscle from the tibia was removed and final length of tibia was measured by using electronic digital caliper as reported previously (Zaman, Menendez-Benito et al. 2007).
# In another study, four weeks old female mice FVB strain (Charles-river, Germany) were injected with Dexa dissolved in saline (20 μg/mice) subcutaneously in the neck every day for four week (long-term). Whereas, HNG (S14G) dissolved in saline (1 μg/mice) was injected intraperitoneally, 45 minutes prior to Dexa injection. The vehicle group received saline only. The total body length (nose to anus) was measured (centimeters, cm) manually (blinded, the cadges were coded on the day of measurment), every week. After 4 weeks of treatment, animals were sacrificed by inhalation of CO2, tissue samples (both left and right leg) were collected for subsequent analysis.
# HNG injections were given […] prior to Dexa injections. […] After this, we next asked whether HNG (S14G) has any protective effects on bone growth after long-term treatment with Dexa (FIG. 3A). To investigate this, we treated mice for 4 weeks (group 2) with Dexa (20 μg/mice/day) and HNG (1 μg/mice/day). […] In FIG. 3B, total growth of the animals, nose to anus length (cm, manually) was analyzed in vehicle, Dexa, HNG (S14G) and Dexa/HNG (S14G) treated animals after four weeks of injections. **p<0.01 by 1-way ANOVA analyses, n=9-10/animals/group).
# [2] = test system: FVB mice; assay: Bone mineral density by dual energy X-ray absorptiometry in FVB mice; type: in vivo; conditions: HNG 1 μg/mice/day for four weeks, vs vehicle
# Procedure: Areal bone mineral density (BMD; BMC/cm^2) and BMC were measured by dual energy X-ray absorptiometry (DXA) using the Lunar PIXImus mouse densitometer (Wipro GE Healthcare, Madison, Wisc.). Ex vivo measurements were taken from FVB mice treated with Dexa and HNG for four weeks (for details see methods and materials). The measurements of left femur and tibia were performed on excised bones placed on a 1-cm-thick Plexiglas™ table. All bones compared were measured in the same scan (high-resolution scan with line spacing set at 0.01 cm). n=9-10/animals/group.
# In the light of the above findings where it was observed rescuing effects of HNG (S14G) on bone growth both in vitro and in vivo, it was analyzed whether HNG (S14G) has the capacity to regulate BMD. […] Trabecular BMD in tibia (mg/cm^3) of four-week old FVB mice treated for 4 weeks was measured by using DEXA (see protocol in material and methods).
# [3] = test system: NMRI nude mice; assay: Bone growth (X-ray) in tumor-xenografted NMRI nude mice; type: in vivo; conditions: HNG 1 μg/mice i.p. + bortezomib 1 mg/kg i.p. days 1, 4, 8, 11, day 13
# Procedure: Male NMRI nu/nu mice (B&K Scanbur, Sweden or Taconic, Denmark) were xenografted at the age of 4 weeks (BW 18-25 g). The mice were anesthetized with 2% fluothane (Zeneca Ltd, Macclesfield, UK) supplemented with 50% N2O in oxygen. Tumor cells (NB (SH-SY5Y; 20×10^6 cells/side) or MB (D-283; 10×10^6 cells/side) in 0.1 ml medium) were implanted s.c. in the hindlegs of the animal using a 23 G needle. Tumors were measured every other day with a digital caliper, starting when they were palpable. At a tumor volume of 0.1 ml or 0.15 ml the animals were randomized into groups (1. Vehicle without tumors; 2. Vehicle with tumors; 3. HNG (S14G; 1 μg/mice); 4. CT (bortezomib; 0.8 mg/kg or 1 mg/kg); 5. HNG (S14G) 1 μg/mice+CT (bortezomib; 0.8 mg/kg or 1 mg/kg), stratified by their bodyweight and treatment started. Treatment regime was the same as in clinical settings with 2 injections/week; 2 weeks treatment (see FIG. 1, Group 1). HNG (S14G) was injected 40 min before the CT (bortezomib) injection. Tumor volume was calculated by the formula 0.44×length×width×width (Wassberg, Pahlman et al. 1997). […] The animal weight and general appearance were recorded every day throughout the experiments. […] After fixation, femur and tibia were measured with digital calipers and decalcified in 5% EDTA and then paraffin embedded. […]
# [4] = test system: apoptosis inducing factor (AIF) and BAX; assay: Western immunoblotting of pro-apoptotic proteins in C5.18 chondrocytic cell line; type: cell-based, rat; conditions: 100 nM HNG/1000 nM bortezomib, 6hrs
# Procedure: Western immunoblotting to study protein expression was performed in the rat C5.18 chondrocytic cell line after treatment with 1000 nM CT (bortezomib) or 100 nM humanin analog HNG (S14G)/1000 nM CT (bortezomib (Btz)) for 6hrs. […] By adding humanin analog HNG (S14G), the up-regulation and activation of the two pro-apoptotic proteins were suppressed. […] As an internal control the house-keeping gene, GAPDH (35 kDa) was used. The experiment was repeated twice.
# [5] = test system: neuroblastoma (SK-N-BE(2)) tumor xenografts; assay: Doubling time of tumors in neuroblastoma xenografts; type: in vivo, human; conditions: combination bortezomib 0.8 mg/kg i.v. + HNG 1 μg/mouse/injection i.p.; p<0.05 vs vehicle
substance,measurement,setting,value
S14G-HN (MAPRGFSCLLLLTGEIDLPVKRRA) [HNG (S14G)],rescue from Dexa-induced growth retardation (tibia length),[1]; 1 week,protected mice from Dexa-induced growth retardation; also recorded: rescued mice from Dexa-induced growth retardation
same,rescue from Dexa-induced growth retardation (nose to anus length),[1],completely rescued mice from Dexa-induced growth retardation
same,rescue from Dexa-induced growth retardation (nose to anus length),[1]; listed as HNG (314G),protected mice from Dexa-induced growth retardation
same,trabecular BMD in tibia,[2],trend towards increased BMD
same,rescue of bortezomib-induced impairment of linear bone growth,[3]; medulloblastoma xenograft,able to rescue and prevent the undesired side effects of CT (bortezomib) on linear bone growth
same,rescue of bortezomib-induced impairment of linear bone growth,[3]; neuroblastoma xenograft,able to rescue and prevent the undesired side effects of CT (bortezomib) on linear bone growth
same,bortezomib-induced up-regulation and activation of AIF and BAX,[4],suppressed
same,tumor doubling time,[5],significant reduction in tumor doubling time

# Source: patent publication US20130053323A1, “METHODS AND USE RELATED TO HUMANIN AND HUMANIN-LIKE PEPTIDES” (priority 2009, published 2013)
